In US12116358B2, “Substituted indoles and methods of use thereof” (EPIZYME, INC., priority 2018, dated 2024):
Read-outs that look alike come from different tables or passages of the source.

How the values were obtained:
[1] = test system: H3K36me3 in A549 cells; test: In-Cell Western (ICW) assay of SETD2 inhibitors (A549 assay); type: cell-based, human; settings: A549 cells, read-out: SETD2 A549
Summary of the method: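 A549 cells seeded at 4,000/well onto compound and incubated 3 days at 37° C. Methanol-fixed cells stained overnight at 4° C with anti-H3K36me3 (1:1000), then IRDye 800CW secondary with DRAQ5 DNA counterstain. Plates read by Licor imaging at 700 and 800 channels.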

[2] = target: T1, SETD2(1434-1711) (Homo sapiens, UniProt Q9BYW2); test: SETD2 (1434-1711) assay; type: biochemical; settings: read-out: SETD2 (1434-1711)
T1 construct: SETD2 (1434-1711) Assay; catalogue N/A
T1 sequence (Q9BYW2 1434-1711): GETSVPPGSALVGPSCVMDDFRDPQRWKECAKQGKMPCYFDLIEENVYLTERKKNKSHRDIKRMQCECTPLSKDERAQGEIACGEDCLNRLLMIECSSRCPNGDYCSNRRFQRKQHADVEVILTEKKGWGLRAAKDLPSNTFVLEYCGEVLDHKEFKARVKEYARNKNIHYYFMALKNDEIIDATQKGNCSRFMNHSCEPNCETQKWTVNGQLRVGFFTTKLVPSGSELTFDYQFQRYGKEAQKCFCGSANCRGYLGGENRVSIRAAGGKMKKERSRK

Cc1ccc(F)c2cc(C(=O)N[C@@H]3CCC[C@@H](N4CCn5cnnc5C4)C3)[nH]c12 [compound 861]
IC50 [1]: > 2000 nM | IC50 [2]: 1900 nM

Cc1ccc(F)c2cc(C(=O)NC(C(N)=O)c3ccccn3)[nH]c12 (stereo not drawn) [compound 503]
IC50 [1]: 14800 nM | IC50 [2]: 9700 nM

CC(=O)N1CCN([C@@H]2CCC[C@@H](NC(=O)c3cc4c(F)ccc(C)c4[nH]3)C2)CC1C (stereo partly drawn) [compound 907]
IC50 ([1]; Homo sapiens): 1700 nM | IC50 [2]: 900 nM

Cc1cccnc1C(NC(=O)c1cc2ncccn2n1)C1CC1 (stereo not drawn) [compound 604]
IC50 ([1]; Homo sapiens): > 25000 nM | IC50 [2]: > 50000 nM

Cc1ccc(F)c2cc(C(=O)Nc3cccc(-c4cnco4)c3)[nH]c12 [compound 108]
IC50 ([1]; Homo sapiens): 200 nM | IC50 [2]: 60 nM

Cc1ccc(F)c2cc(C(=O)Nc3cccc(-c4cccnc4)c3)[nH]c12 [compound 137]
IC50 ([1]; Homo sapiens): 300 nM | IC50 [2]: 50 nM

Cc1ccc(F)c2cc(C(=O)Nc3cccc(-c4cnc(N)[nH]4)c3)[nH]c12 [compound 501]
IC50 [1]: 14600 nM | IC50 [2]: 400 nM

CC(=O)N1CCC12CN(C1CCCC(NC(=O)c3cc4c(F)ccc(C)c4[nH]3)C1)C2 (stereo not drawn) [compound 950]
IC50 [1]: > 2000 nM | IC50 [2]: 400 nM

Cc1ccc(F)c2cc(C(=O)NC3C(=O)NCCc4cccnc43)[nH]c12 (stereo not drawn) [compound 361]
IC50 ([1]; Homo sapiens): > 2000 nM | IC50 [2]: 1300 nM

Cc1ccc(F)c2cc(C(=O)Nc3cccc(N4CCN(C)CC4)n3)[nH]c12 [compound 344]
IC50 [1]: 1800 nM | IC50 [2]: 200 nM

CC(=O)N1CCC(c2cc(F)cc(NC(=O)c3cc4c(F)ccc(C)c4[nH]3)c2)C1 (stereo not drawn) [compound 56]
IC50 [1]: 100 nM | IC50 [2]: 30 nM

Cc1ccc(F)c2cc(C(=O)Nc3cccc(N4CCN(C)CC4c4ccccc4)c3)[nH]c12 (stereo not drawn) [compound 539]
IC50 [1]: > 25000 nM | IC50 [2]: 1600 nM

Cc1ccnnc1C(NC(=O)c1cc2c(F)ccc(C)c2[nH]1)C1CC1 (stereo not drawn) [compound 450]
IC50 ([1]; Homo sapiens): 5600 nM | IC50 [2]: 2300 nM

Cc1cccnc1C(NC(=O)c1cc2cccc(C)c2[nH]1)C(C)(C)C (stereo not drawn) [compound 568]
IC50 ([1]; Homo sapiens): > 25000 nM | IC50 [2]: 13900 nM

Cc1ccc(F)c2cc(C(=O)Nc3cccc4c(N5CCC(N(C)C)CC5)[nH]nc34)[nH]c12 [compound 415]
IC50 ([1]; Homo sapiens): 3200 nM | IC50 [2]: 100 nM

CC(=O)N1CCN(C(=O)C2CCCN(C(=O)c3cc4c(F)ccc(C)c4[nH]3)C2)CC1 (stereo not drawn) [compound 886]
IC50 ([1]; Homo sapiens): > 2000 nM | IC50 [2]: 8900 nM

Cc1ccc(N2CCOCC2)cc1NC(=O)c1cc2cccc(C)c2[nH]1 [compound 490]
IC50 [1]: 12100 nM | IC50 [2]: 6500 nM

Cc1cccnc1C(NC(=O)c1cc2cccc(CO)c2[nH]1)C1CC1 (stereo not drawn) [compound 574]
IC50 ([1]; Homo sapiens): > 25000 nM | IC50 [2]: 17300 nM

CCNC(=O)N1CCN(C2CCCC(NC(=O)c3cc4c(F)ccc(C)c4[nH]3)C2)CC1 (stereo not drawn) [compound 948]
IC50 [1]: 100 nM | IC50 [2]: 10 nM

Cc1ccc(F)c2cc(C(=O)Nc3cccc(N4CCCC(N(C)C)C4)c3)[nH]c12 (stereo not drawn) [compound 335]
IC50 ([1]; Homo sapiens): 1600 nM | IC50 [2]: 80 nM

Cc1ccc(F)c2cc(C(=O)NC3CCCC(N4CCN(C(=O)OC5CCOCC5)CC4)C3)[nH]c12 (stereo not drawn) [compound 1000]
IC50 [1]: > 2000 nM | IC50 [2]: 1500 nM

Cc1ccc(F)c2cc(C(=O)N[C@@H]3CCC[C@H](N4CCC(N5CCCC5=O)C4)C3)[nH]c12 (stereo partly drawn) [compound 910]
IC50 ([1]; Homo sapiens): 100 nM | IC50 [2]: 30 nM

CCC(NC(=O)c1cc2cccc(C)c2[nH]1)c1ncccc1C (stereo not drawn) [compound 471]
IC50 ([1]; Homo sapiens): 8500 nM | IC50 [2]: 5400 nM

Cc1ccc(F)c2cc(C(=O)Nc3cccc(-c4cccc5nccn45)c3)[nH]c12 [compound 272]
IC50 ([1]; Homo sapiens): 800 nM | IC50 [2]: 100 nM

Cc1ccc(F)c2cc(C(=O)Nc3ncc(C4CCN(C)CC4)[nH]3)[nH]c12 [compound 371]
IC50 ([1]; Homo sapiens): > 2000 nM | IC50 [2]: > 10000 nM

Cc1ccc(F)c2cc(C(=O)Nc3cccc(N4CCN(C(=O)CO)CC4)c3)[nH]c12 [compound 72]
IC50 [1]: 200 nM | IC50 [2]: 30 nM

Cc1ccc(F)c2cc(C(=O)Nc3cccc(N4CCN(C(=O)CCO)CC4)c3)[nH]c12 [compound 149]
IC50 ([1]; Homo sapiens): 300 nM | IC50 [2]: 70 nM

CCCNC1CCN(c2cccc(NC(=O)c3cc4c(F)ccc(C)c4[nH]3)c2)CC1 [compound 225]
IC50 [1]: 500 nM | IC50 [2]: 30 nM

Cc1ccc(F)c2cc(C(=O)NC3CCCC(N4CCC(N(C)C(=O)C5COC5)C4)C3)[nH]c12 (stereo not drawn) [compound 947]
IC50 [1]: > 2000 nM | IC50 [2]: 5500 nM

Cc1ccc(F)c2cc(C(=O)N[C@@H]3CCC[C@@H](N4CCC(N(C)C(=O)CO)C4)C3)[nH]c12 (stereo partly drawn) [compound 935]
IC50 ([1]; Homo sapiens): > 2000 nM | IC50 [2]: 1900 nM

Cc1ccc(F)c2cc(C(=O)Nc3cccc([C@@H]4CC[C@@H](N(C)C)C4)c3)[nH]c12 [compound 217]
IC50 [1]: 500 nM | IC50 [2]: 10 nM

Cc1ccc(F)c2cc(C(=O)Nc3cccc(N4CCC5(CCNC5)CC4)c3)[nH]c12 [compound 241]
IC50 [1]: 600 nM | IC50 [2]: 10 nM

Cc1ccc(F)c2cc(C(=O)Nc3cc(F)cc([C@@H]4CCN5C(=O)CC[C@H]5C4)c3)[nH]c12 [compound 96]
IC50 [1]: 200 nM | IC50 [2]: 40 nM

Cc1ccc(F)c2cc(C(=O)Nc3cc(F)cc(N4C[C@@H]5CCN(C)[C@@H]5C4)c3)[nH]c12 [compound 105]
IC50 [1]: 200 nM | IC50 [2]: 8 nM

Cc1ccc(F)c2cc(C(=O)Nc3cccc(N4CCC(N5CCC(F)(F)CC5)C4)c3)[nH]c12 (stereo not drawn) [compound 153]
IC50 ([1]; Homo sapiens): 300 nM | IC50 [2]: 50 nM

CC[C@H]1CN([C@H]2CCC[C@@H](NC(=O)c3cc4c(F)ccc(C)c4[nH]3)C2)CCN1C(C)=O [compound 1085]
IC50 ([1]; Homo sapiens): 100 nM | IC50 [2]: 30 nM

CNC1CCN(c2cccc(NC(=O)c3cc4c(F)ccc(C)c4[nH]3)c2)CC1 [compound 144]
IC50 ([1]; Homo sapiens): 300 nM | IC50 [2]: 20 nM

Cc1cccnc1C(CCC(=O)N1CCOCC1)NC(=O)c1cc2cccc(C)c2[nH]1 (stereo not drawn) [compound 420]
IC50 [1]: 3600 nM | IC50 [2]: 2400 nM

Cc1ccc(F)c2cc(C(=O)Nc3cccc(N4C5CCC4C(=O)N(C)C5)c3)[nH]c12 (stereo not drawn) [compound 411]
IC50 [1]: 3000 nM | IC50 [2]: 800 nM

Cc1ccc(F)c2cc(C(=O)Nc3cccc(N4CCC(N5CCC5)C4)c3)[nH]c12 (stereo not drawn) [compound 178]
IC50 ([1]; Homo sapiens): 400 nM | IC50 [2]: 10 nM

Cc1ccc(F)c2cc(C(=O)Nc3cc(C#N)cc(N4CCC(N(C)C)CC4)c3)[nH]c12 [compound 345]
IC50 ([1]; Homo sapiens): 1800 nM | IC50 [2]: 60 nM

Cc1ccc(F)c2cc(C(=O)Nc3cc(N4CCN(C)CC4)ccn3)[nH]c12 [compound 612]
IC50 ([1]; Homo sapiens): > 25000 nM | IC50 [2]: > 50000 nM

COC1CN(C2CCN(c3cccc(NC(=O)c4cc5c(F)ccc(C)c5[nH]4)c3)CC2)C1 [compound 155]
IC50 ([1]; Homo sapiens): 300 nM | IC50 [2]: 50 nM

CCC(=O)N1CCN(C2CCCC(NC(=O)c3cc4c(F)ccc(C)c4[nH]3)C2)CC1C(F)(F)F (stereo not drawn) [compound 1164]
IC50 [1]: > 2000 nM | IC50 [2]: 2100 nM

Cc1ccc(F)c2cc(C(=O)N[C@@H]3CCC[C@@H](N4CCNC(=O)CC4)C3)[nH]c12 [compound 933]
IC50 ([1]; Homo sapiens): > 2000 nM | IC50 [2]: 700 nM

Cc1ccc(F)c2cc(C(=O)Nc3nnc(C4CCN(C)CC4)s3)[nH]c12 [compound 519]
IC50 [1]: 19300 nM | IC50 [2]: 50000 nM

Cc1ccc(F)c2cc(C(=O)NC3CCCC(N4CCN(C5CC5)C(=O)C4)C3)[nH]c12 (stereo not drawn) [compound 978]
IC50 [1]: > 2000 nM | IC50 [2]: 2300 nM

CCc1cc(NC(=O)c2cc3c(F)ccc(C)c3[nH]2)cc(N2CCC(N(C)C)CC2)c1 [compound 398]
IC50 [1]: 2400 nM | IC50 [2]: 70 nM
